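Where inhibition never reached the appropriate level, the endpoint shown equals the highest concentration tested. Otherwise, values were interpolated linearly from a five-concentration, 48-hour dose response in 96-well plates. At the GI50, growth is halved.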 Active and inactive are the calls of the source. Cut-off read from the data, not from the text of the source: active = GI50 up to about 1.1 µM and inactive = higher.
Columns and labels:
Assay in all cases: NCI anticancer screen, dose series, 48 h
786-0 = system: 786-0
A498 = system: A498
A549 = system: A549
ACHN = system: ACHN
BT-549 = system: BT-549
CAKI-1 = system: CAKI-1
CCRF-CEM = system: CCRF-CEM
COLO 205 = system: COLO 205
DU-145 = system: DU-145
EKVX = system: EKVX
HCC 2998 = system: HCC 2998
HCT-116 = system: HCT-116
HCT-15 = system: HCT-15
HL-60 = system: HL-60
HOP-62 = system: HOP-62
HOP-92 = system: HOP-92
HT-29 = system: HT-29
Hs-578T = system: Hs-578T
K562 = system: K562
KM12 = system: KM12
LOX IMVI = system: LOX IMVI
M14 = system: M14
MCF7 = system: MCF7
MDA-MB-231 = system: MDA-MB-231
MDA-MB-435 = system: MDA-MB-435
MOLT-4 = system: MOLT-4
Malme-3M = system: Malme-3M
NCI-H226 = system: NCI-H226
NCI-H23 = system: NCI-H23
NCI-H460 = system: NCI-H460
NCI-H522 = system: NCI-H522
NCI/ADR-RES = system: NCI/ADR-RES
OVCAR-3 = system: OVCAR-3
OVCAR-4 = system: OVCAR-4
OVCAR-5 = system: OVCAR-5
OVCAR-8 = system: OVCAR-8
PC-3 = system: PC-3
RXF 393 = system: RXF 393
SF-268 = system: SF-268
SF-295 = system: SF-295
SF-539 = system: SF-539
SK-MEL-28 = system: SK-MEL-28
SK-MEL-2 = system: SK-MEL-2
SK-MEL-5 = system: SK-MEL-5
SK-OV-3 = system: SK-OV-3
SN12C = system: SN12C
SNB-19 = system: SNB-19
SNB-75 = system: SNB-75
SW-620 = system: SW-620
T47D = system: T47D
TK-10 = system: TK-10
U-251 = system: U-251
UACC-257 = system: UACC-257
UACC-62 = system: UACC-62
UO-31 = system: UO-31

`O=S1(=O)N=C(NCc2c[nH]c3ccccc23)N(c2ccccc2)c2ccncc21` was tested. Which GI50 (786-0) did it give?
Its GI50 is 53.3 µM (inactive).

What about the GI50 (A498) of the same compound?
The GI50 was > 100 µM (inactive).

And the GI50 (A549)?
The GI50 was > 100 µM (inactive).

What about the GI50 (ACHN) of the same compound?
The GI50 was > 100 µM (inactive).

What about the GI50 (BT-549) of the same compound?
The GI50 was 55.1 µM (inactive).

What about the GI50 (CAKI-1) of the same compound?
Its GI50 is > 100 µM (inactive).

And the GI50 (CCRF-CEM)?
Its GI50 is > 100 µM (inactive).

And the GI50 (COLO 205)?
Its GI50 is > 100 µM (inactive).

What about the GI50 (DU-145) of the same compound?
The GI50 was > 100 µM (inactive).

And the GI50 (EKVX)?
The GI50 was 64.9 µM (inactive).

And the GI50 (HCC 2998)?
Its GI50 is > 100 µM (inactive).

What about the GI50 (HCT-116) of the same compound?
The GI50 was > 100 µM (inactive).

And the GI50 (HCT-15)?
The GI50 was greater than 100 µM.

And the GI50 (HL-60)?
The GI50 was > 100 µM (inactive).

And the GI50 (HOP-62)?
The GI50 was 30 µM (inactive).

And the GI50 (HOP-92)?
Its GI50 is 22.6 µM (inactive).

What about the GI50 (HT-29) of the same compound?
The GI50 was > 100 µM (inactive).

What about the GI50 (Hs-578T) of the same compound?
Its GI50 is 31.7 µM (inactive).

And the GI50 (K562)?
The GI50 was > 100 µM (inactive).

And the GI50 (KM12)?
The GI50 was > 100 µM (inactive).

And the GI50 (LOX IMVI)?
Its GI50 is > 100 µM (inactive).

And the GI50 (M14)?
The GI50 was > 100 µM (inactive).

And the GI50 (MCF7)?
The GI50 was > 100 µM (inactive).

And the GI50 (MDA-MB-231)?
Its GI50 is > 100 µM (inactive).

What about the GI50 (MDA-MB-435) of the same compound?
The GI50 was > 100 µM (inactive).

What about the GI50 (MOLT-4) of the same compound?
Its GI50 is > 100 µM (inactive).

And the GI50 (Malme-3M)?
The GI50 was > 100 µM (inactive).

And the GI50 (NCI-H226)?
Its GI50 is 60.3 µM (inactive).

And the GI50 (NCI-H23)?
Its GI50 is > 100 µM (inactive).

And the GI50 (NCI-H460)?
The GI50 was > 100 µM (inactive).

And the GI50 (NCI-H522)?
The GI50 was 25.1 µM (inactive).

What about the GI50 (NCI/ADR-RES) of the same compound?
The GI50 was > 100 µM (inactive).

And the GI50 (OVCAR-3)?
The GI50 was > 100 µM (inactive).

And the GI50 (OVCAR-4)?
The GI50 was > 100 µM (inactive).

What about the GI50 (OVCAR-5) of the same compound?
Its GI50 is > 100 µM (inactive).

What about the GI50 (OVCAR-8) of the same compound?
Its GI50 is 27.4 µM (inactive).

What about the GI50 (PC-3) of the same compound?
Its GI50 is > 100 µM (inactive).

And the GI50 (RXF 393)?
Its GI50 is > 100 µM (inactive).

And the GI50 (SF-268)?
Its GI50 is 27.5 µM (inactive).

What about the GI50 (SF-295) of the same compound?
Its GI50 is > 100 µM (inactive).

What about the GI50 (SF-539) of the same compound?
Its GI50 is 66.4 µM (inactive).

And the GI50 (SK-MEL-28)?
Its GI50 is > 100 µM (inactive).

What about the GI50 (SK-MEL-2) of the same compound?
Its GI50 is > 100 µM (inactive).

And the GI50 (SK-MEL-5)?
The GI50 was > 100 µM (inactive).

And the GI50 (SK-OV-3)?
Its GI50 is 40.2 µM (inactive).

And the GI50 (SN12C)?
The GI50 was 81.7 µM (inactive).

And the GI50 (SNB-19)?
Its GI50 is 34.9 µM (inactive).

What about the GI50 (SNB-75) of the same compound?
Its GI50 is 16.8 µM (inactive).

And the GI50 (SW-620)?
Its GI50 is > 100 µM (inactive).

And the GI50 (T47D)?
The GI50 was > 100 µM (inactive).

What about the GI50 (TK-10) of the same compound?
The GI50 was > 100 µM (inactive).

And the GI50 (U-251)?
Its GI50 is 49.4 µM (inactive).

What about the GI50 (UACC-257) of the same compound?
The GI50 was > 100 µM (inactive).

And the GI50 (UACC-62)?
Its GI50 is > 100 µM (inactive).

What about the GI50 (UO-31) of the same compound?
The GI50 was 5.25 µM (inactive).

— ChEMBL document CHEMBL1201862, “PubChem BioAssay data set” (2004)
